Reference: patent EP2730586B1, “PROTEIN-P[…] OBTAINED FROM TISSUES OF HOOFED LIVESTOCK EMBRYOS, PROCESS FOR PREPARING SAME AND PHARMACEUTICAL COMPOSITION” (Aktsionernoe Obschestvo "Pharm-Sintez", priority 2011, dated 2012)

System: mice marrow cells
Protocol: The study objective was detection and quantitative estimate of cytogenetic (mutagenic) activity of pharmacologic substances in polychromatophil cells (PCC) of mammal marrow. The method is based on microscopic recording of cells with micronuclei.
The experiments were performed to 2 months old male and female F1 (CBAx C57BI6/J) cross-breed mice weighing 18-20 g. Each group included 6 animals. The animals were kept at 12 hours light pattern with free food and water access. […] Three sessions of experiments were carried out with corresponding controls: therapeutic dose was tested on male animals with a single introduction; subtoxic dose was tested on male animals with a single introduction; therapeutic dose was tested on male animals with a single introduction; subtoxic dose was tested on male animals and female with five-time introduction.
Seven animal groups were formed: four experimental groups and three corresponding reference groups. The substance in the amount of 0.1 mg/kg was introduced five times at 24 hours interval to males and females. All animals were sacrificed 6 hours upon the last introduction of the protein/polypeptide complex.
In two other experimental groups, the protein/polypeptide complex was introduced in single dosing to males in doses of 0.2 mg/kg and 0.5 mg/kg.
Normal saline solvent was used as a negative control. It was introduced intraperitoneally to male and female mice of two reference groups for the same period and in the same amount as to the experimental animals.
Marrow cell preparations for micronuclei count were made by a standard method in compliance with guidelines [formula] […] The animals were sacrificed through cervical dislocation 6 hours after the last introduction. Both thigh bones were detached and muscles were removed from them. In order to wash out the marrow, fetal calf serum was used (produced by NPP PanEko). The marrow from both thigh bones was washed out into a microtube using a syringe. […] 2,000 polychromatophil cells from each animal were analyzed in encoded preparations.

## O=P1(N(CCCl)CCCl)NCCCO1 (stereo not drawn) [Cyclophosphamide, cyclophosphamide]
20 mg/kg, compared to control P<0.005
  polychromatophilic to normochromatic erythrocytes ratio: shift to the latter
Male mice, 20 mg/kg intraperitoneally, versus reference, P<0.001
  increased frequency of micronucleus cells: 19.6 times
Male mice, 20 mg/kg intraperitoneally, 3.16 % in reference
  frequency of micronucleus cells: 62.1%
